In the NIST ThermoML archive (doi:10.1021/je1001945) one finds Normal melting temperature data, which are given here for one molecule.

The conditions of the data set: Crystal; visual observation.

Each structure is given as a SMILES string. ± gives the expanded uncertainty stated by the source.

Regarding `c1ccc2cc3ccccc3cc2c1` [anthracene], the Normal melting temperature was 215 ± 1 °C.
